Measurements from patent publication US7297691B2, “Treatment of sleep disorders with cholinesterase inhibitors” (priority 2003, dated 2007).
Where a name gives a salt, the structure may show the parent alone.

Columns and labels:
[1] = cited from earlier work
[2] = tested on: cholinesterase in hemolyzed whole blood (hemolysate); assay: SIGMA DIAGNOSTICS CHOLINESTERASE (PTC) kit, hemolysate ChE activity in blood samples; format: biochemical, human; settings: for Hemolysate ChE activity: blood samples from 3 patients, no Nivalin = 1.00
Protocol: (§1) SIGMA DIAGNOSTICS® CHOLINESTERASE (PTC) kit, available from Sigma Diagnostics, can be used for determining the activity and selectivity of cholinesterase inhibitors.
(§2) Reactions involved in the cholinesterase assay are as follows:
(§3) [drawing 4] 5-thio-2-nitrobenzoic acid is assessed by measuring the absorbance at 405 nm. The rate of change in absorbance at 405 nm is directly proportional to cholinesterase activity.
(§4) The activity of erythrocyte cholinesterase may be calculated on the basis of the measurement of butyrylcholinesterase (pseudocholinesterase) in serum and cholinesterase in hemolyzed whole blood (hemolysate), both measured simultaneously by the method described above, and evaluated according to the hematocrit value according to the formula HchE=(EchE×Hct*)+(PchE×(1−Hct*)) Therefore, EchE=(HchE−(PchE×(1−Hct*))/Hct*. • Hematocrit value expressed as decimal equivalent (i.e. 25%=0.25) In the above formulae, EChE is erythrocyte cholinesterase activity, PChE is plasma cholinesterase activity, HChE is hemolysate cholinesterase activity, and Hct is hematocrit value of the sample.
(§5) Another way of assessing the cholinesterase activity is to measure the plasma cholinesterase and the cholinesterase in purified hemolyzed erythrocytes. By doing this, the values are obtained directly.
(§6) Blood samples from 3 patients are tested with the Sigma test.

[3] = in humans; cited from earlier work
[4] = molecular target: T1, butyrylcholinesterase (pseudocholinesterase) in serum (Homo sapiens, UniProt P06276); assay: SIGMA DIAGNOSTICS CHOLINESTERASE (PTC) kit, serum ChE activity in blood samples; format: biochemical; settings: for Serum ChE activity: blood samples from 3 patients, no Nivalin = 1.00
T1 construct: butyrylcholinesterase (pseudocholinesterase) in serum; from tissue; host or cells: serum of patients
T1 sequence (P06276 29-602): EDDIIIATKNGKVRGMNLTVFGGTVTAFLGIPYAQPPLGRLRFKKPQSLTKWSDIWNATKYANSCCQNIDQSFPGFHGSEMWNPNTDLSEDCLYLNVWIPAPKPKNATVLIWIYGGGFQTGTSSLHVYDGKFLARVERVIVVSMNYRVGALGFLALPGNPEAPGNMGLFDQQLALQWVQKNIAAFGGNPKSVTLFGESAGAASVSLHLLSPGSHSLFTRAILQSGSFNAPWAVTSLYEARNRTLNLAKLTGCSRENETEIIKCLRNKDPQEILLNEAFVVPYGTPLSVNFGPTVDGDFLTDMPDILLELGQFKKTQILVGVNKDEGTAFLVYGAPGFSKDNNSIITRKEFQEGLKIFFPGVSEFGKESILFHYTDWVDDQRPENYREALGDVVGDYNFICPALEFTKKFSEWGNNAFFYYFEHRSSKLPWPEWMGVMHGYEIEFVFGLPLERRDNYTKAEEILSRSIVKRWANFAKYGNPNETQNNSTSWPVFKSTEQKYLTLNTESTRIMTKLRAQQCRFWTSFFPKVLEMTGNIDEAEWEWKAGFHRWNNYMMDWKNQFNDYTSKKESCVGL
Protocol: as §1, §2, §3, §4, §5, §6

[5] = in vivo; cited from earlier work
[6] = cited from earlier work; remark: listed apart in the source
[7] = side effects in patients treated; format: in vivo, human
[8] = 1.25 μg/ml Nivalin added in vitro
[9] = 2.50 μg/ml Nivalin added in vitro
[10] = 1.25 and 2.5 μg/ml added in vitro

Row | Compound | lipid solubility [1] | Hemolysate ChE activity [2, 8] | Hemolysate ChE activity [2, 9] | change of hemolysate cholinesterase activity with increased concentration [2, 10] | passing the blood-brain barrier [3] | Serum ChE activity [4, 8] | Serum ChE activity [4, 9] | change of serum activity as a response to the addition [4, 10] | elimination half life [5] | solubility in water ([1]; at room temperature) | toxicity ([6]; in therapeutic concentrations) | severe side effects ([6]; in therapeutically effective dosages) | reported cases of liver toxicity or serious side effects ([6]; use as anticurare agent in anesthesiology since around 1958) | more severe side effects, share of patients [7] | vomiting and dizziness, share of patients ([7]; disappearing after about one week in most cases) | slight nausea, share of cases ([7]; disappearing after about one week of treatment) | complete elimination of metabolites and galantamine [5]
1 | COc1ccc2c3c1O[C@H]1C[C@@H](O)C=C[C@@]31CCN(C)C2 [Nivalin, Galantamine hydrobromide] | lipid soluble | 0.96 | 0.86 | significant reduction | transverses the blood brain barrier easily | 0.98 | 0.97 | do not show any statistically significant change | over four hours |  |  |  |  |  |  |  | 
2 | [4aS-(4aα,6β,8aR*)]-4a,5,9,10 11,12-hexahydro-3-methoxy-11-methyl-6H-benzofuro[3a,3,2-ef][2]benzazepin-6-ol [Galantamine] |  |  |  |  |  |  |  |  |  | only sparingly soluble | relatively low toxicity | no severe side effects | without any reported case | 4-6% | 5-10% | about 30% | 72 h
